The values that follow come from article PMC11785791, “Cryo-EM structure of the calcium-sensing receptor complexed with the kokumi substance γ-glutamyl-valyl-glycine” (Scientific Reports, 2025).

Read-outs that look alike come from different tables or passages of the source. *1 amine or outer side, *2 acyl side, *3 side chain or, on linkers, in order; H or OH if unused. Where a SMILES comes first, the peptide text is derived from it. γGlu = O=C(O)[CH](CCC(=O)[*:2])N[*:1]

The target of one assay is T1, human CaSR N102F mutant (Homo sapiens, UniProt P41180, N102F).
T1 construct: (N); expressed in transfected cells; host or cells: PEAKrapid cells (ATCC), pcDNA 3.1, transient transfection
T1 sequence (P41180 20-1078 N102F): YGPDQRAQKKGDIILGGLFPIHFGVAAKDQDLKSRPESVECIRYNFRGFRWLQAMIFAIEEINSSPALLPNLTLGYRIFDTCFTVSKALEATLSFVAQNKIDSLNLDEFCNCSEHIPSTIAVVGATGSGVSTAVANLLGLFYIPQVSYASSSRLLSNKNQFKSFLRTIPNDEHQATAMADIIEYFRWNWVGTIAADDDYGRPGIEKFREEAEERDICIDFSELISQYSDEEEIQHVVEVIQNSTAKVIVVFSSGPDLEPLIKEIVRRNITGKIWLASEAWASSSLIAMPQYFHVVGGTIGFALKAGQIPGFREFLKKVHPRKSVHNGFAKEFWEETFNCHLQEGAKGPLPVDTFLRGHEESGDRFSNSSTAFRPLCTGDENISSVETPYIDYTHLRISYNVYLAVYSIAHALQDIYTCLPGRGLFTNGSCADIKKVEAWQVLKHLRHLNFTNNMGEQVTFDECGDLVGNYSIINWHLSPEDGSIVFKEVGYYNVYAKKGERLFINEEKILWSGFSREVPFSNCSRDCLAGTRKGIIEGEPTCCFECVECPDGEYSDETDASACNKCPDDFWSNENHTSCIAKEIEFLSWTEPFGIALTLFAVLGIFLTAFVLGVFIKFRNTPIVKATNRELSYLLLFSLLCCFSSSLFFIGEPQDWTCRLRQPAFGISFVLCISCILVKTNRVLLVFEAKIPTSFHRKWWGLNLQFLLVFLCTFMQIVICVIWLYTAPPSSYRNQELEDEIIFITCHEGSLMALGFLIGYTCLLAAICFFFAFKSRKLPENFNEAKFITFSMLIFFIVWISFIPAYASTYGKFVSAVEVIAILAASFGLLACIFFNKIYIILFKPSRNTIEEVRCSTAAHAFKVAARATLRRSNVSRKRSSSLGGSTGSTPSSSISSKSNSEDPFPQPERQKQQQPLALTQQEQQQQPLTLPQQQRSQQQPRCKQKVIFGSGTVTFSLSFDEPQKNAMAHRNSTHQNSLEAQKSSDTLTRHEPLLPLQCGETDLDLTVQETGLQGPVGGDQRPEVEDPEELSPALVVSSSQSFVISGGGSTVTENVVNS
Kind of assay: Calcium mobilization assay, CaSR N102F mutant. The class given is cell-based. Conditions: for Response in calcium mobilization assay: in words, compared with wild type; for Emax: read-out: Emax (% of wild-type values). Here is the method: The CaSR receptor responsiveness was assessed by using PEAK^rapid cells (ATCC, Manassas, VA, USA) transiently transfected with the receptor DNA by the method reported by Kitajima et al.[6]. Briefly, human CaSR or its mutant cDNA with a signal sequence (MAFYSCCWVLLALTWHTSA) followed by FLAG-tag (DYKDDDDK) were inserted into pcDNA 3.1 expression vectors in Opti-MEM I medium (Thermo Fisher Scientific), mixed with FuGENE 6 (Roche), and poured onto PEAK^rapid cells grown at a submaximal concentration. After culturing for 24 h in 96-well plates, the cells were incubated with 5 µM Calcium-5 solution (Calcium-5 assay kit, Molecular Devices) for 45–60 min, and measurements were performed using a plate reader (FDSS/µCELL, Hamamatsu Photonics, Shizuoka, Japan) and its associated software. The activation of CaSR expressed in cells increases the intracellular Ca^2+ concentration, which is measured using a Ca^2+-sensitive dye. The binding of Ca^2+ to the Ca^2+-sensitive dye increases dye fluorescence, with excitation at 485 nm and emission at 525 nm. Test compounds were dissolved and administered in the assay buffer (146 mM NaCl, 1 mM MgSO4, 20 mM HEPES, 1 mM CaCl2, 2.5 mM probenecid, and 1.39 mM glucose, pH 7.4). Transiently transfected cells were challenged with compounds and compared with the vehicle alone and/or mock-transfected cells. The concentration dependence of the fluorescence intensity (influx of Ca^2+) was analyzed using the plate reader at 1 s intervals for 180 s. For the dose–response curve calculations, peak fluorescence responses after the addition of compounds were corrected for, normalized to the background fluorescence (ΔF/F = –F − F0)/F0), and baseline noise was subtracted. Dose–response curves were calculated by non-linear regression using GraphPad PRISM 8.0.
Background: A change in cytosolic calcium serves as a functional read-out for many receptors and channels.

The subject of another assay is CaSR. Further details: method as in PMID 19892707, PMID 27477658. The following applies: screening of dipeptides and tripeptides, previous work; cited from earlier work.
[1] abbreviates: N102F mutant, mean ± s.e.m., n = 3, read-out: EC50.

A word on the EC50: it is the concentration at which the effect is half-maximal. Usually Emax stands for the size of the effect at its maximum, as opposed to the concentration needed.

Regarding `[Ca+2].[Cl-].[Cl-]` [CaCl2], the “Emax (% of wild-type values)” value at human CaSR N102F mutant (N102F mutant) was 87.8 % of WT. Further, the EC50 at human CaSR N102F mutant (setting [1]) was 2750 ± 210 µM.

Consider `N[C@@H](Cc1ccc(O)cc1)C(=O)O` [L-Tyr, L-tyrosine], for which, at human CaSR N102F mutant (N102F mutant), the “Response in calcium mobilization assay” value is reported as “more active than the wild type” and the Emax was found to be 132%. Besides, at human CaSR N102F mutant (setting [1]), the EC50 stood at 2160 ± 400 µM.

Turning to `CC(C)[C@H](NC(=O)CC[C@H](N)C(=O)O)C(=O)O` [γ-EV, γ-glutamyl-valine], on human CaSR N102F mutant (N102F mutant), the “Emax (% of wild-type values)” value was 194.8 % of WT and the “Response in calcium mobilization assay” value is listed as “more active than the wild type”. Further, the EC50 at human CaSR N102F mutant (setting [1]) turned out to be 4.48 ± 0.2 µM.

`CC(C)C(NC(=O)CCC(N)C(=O)O)C(=O)NCC(=O)O` (stereo not drawn) [γ-EVG, γ-glutamyl-valyl-glycine] (γGlu-Val-Gly-OH; configuration not given here): the “EC50 of N102F mutant relative to wild-type EC50” value on human CaSR N102F mutant (6.52 / 0.18, N102F vs wild type) is “approximately 36.2 fold”. In addition, the EC50 on human CaSR N102F mutant (N102F mutant, read-out: EC50 of the N102F mutant) came out at 6.52 ± 0.1 µM. In addition, the Emax at human CaSR N102F mutant amounted to 95.7%. In addition, the CaSR activation potency entry in the assay on CaSR is reported as “most potent activity among those tested”.
